PubChem BioAssay (NCI)
Values joined by “and” are separate entries in the source; they are usually repeats but may differ in a detail not shown here. Equal entries are not always repeated.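 Where inhibition never reached the appropriate level, the endpoint shown equals the highest concentration tested. Otherwise, values were interpolated linearly from a five-concentration, 48-hour dose response in 96-well plates. GI50 is the concentration that inhibits growth by half. TGI denotes the concentration required for complete inhibition of growth.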

test system: IGROV1 ovarian; experiment: NCI-60 cell line screen, 48 h

Compound	TGI [µM]
Nc1ccccc1C(=O)N=Nc1c(O)[nH]c2ccccc12	> 100
COc1ccc2nc3cc(Cl)ccc3c(NCCCN3CCN(CCCNc4ccc5nnn6c7ccccc7c(=O)c4c56)CC3)c2c1	> 25
Cn1c(=O)c2c(nc(N/N=C/c3ccccc3C(=O)O)n2C)n(C)c1=O	> 100

test system: NCI-H522 lung; experiment: NCI-60 cell line screen, 48 h

Compound	TGI	GI50 [µg/mL]
CC(=O)OCC1OC(n2c3c(cc(C#N)c2=S)CCCC3)C(OC(C)=O)C(OC(C)=O)C1OC(C)=O (configuration not stated)	> 100 µM and 98.7 µM	
N#[N+]c1ccc(Nc2ccccc2)cc1	> 50 µg/mL	> 50
COC(=O)c1c(O)ccc2c1c1cc3ccccc3c(O)c1n2CCc1ccc(OC)c(OC)c1	> 100 µM	
Nc1ccccc1C(=O)N=Nc1c(O)[nH]c2ccccc12	> 100 µM	
COc1ccc2nc3cc(Cl)ccc3c(NCCCN3CCN(CCCNc4ccc5nnn6c7ccccc7c(=O)c4c56)CC3)c2c1	> 23.8 µM	
Cn1c(=O)c2c(nc(N/N=C/c3ccccc3C(=O)O)n2C)n(C)c1=O	> 100 µM	

test system: SK-MEL-5 melanoma; experiment: NCI-60 cell line screen, 48 h

Compound	TGI	GI50 [µg/mL]
CC(=O)OCC1OC(n2c3c(cc(C#N)c2=S)CCCC3)C(OC(C)=O)C(OC(C)=O)C1OC(C)=O (configuration not stated)	> 100 µM	
N#[N+]c1ccc(Nc2ccccc2)cc1	> 50 µg/mL	> 50
COC(=O)c1c(O)ccc2c1c1cc3ccccc3c(O)c1n2CCc1ccc(OC)c(OC)c1	> 100 µM	
Nc1ccccc1C(=O)N=Nc1c(O)[nH]c2ccccc12	> 100 µM	
COc1ccc2nc3cc(Cl)ccc3c(NCCCN3CCN(CCCNc4ccc5nnn6c7ccccc7c(=O)c4c56)CC3)c2c1	> 25 µM	
Cn1c(=O)c2c(nc(N/N=C/c3ccccc3C(=O)O)n2C)n(C)c1=O	> 100 µM	

test system: EKVX NSCLC; experiment: NCI-60 cell line screen, 48 h

Compound	TGI	GI50 [µg/mL]
CC(=O)OCC1OC(n2c3c(cc(C#N)c2=S)CCCC3)C(OC(C)=O)C(OC(C)=O)C1OC(C)=O (configuration not stated)	> 100 µM	
N#[N+]c1ccc(Nc2ccccc2)cc1	> 50 µg/mL	> 50
COC(=O)c1c(O)ccc2c1c1cc3ccccc3c(O)c1n2CCc1ccc(OC)c(OC)c1	> 100 µM	
Nc1ccccc1C(=O)N=Nc1c(O)[nH]c2ccccc12	> 100 µM	
COc1ccc2nc3cc(Cl)ccc3c(NCCCN3CCN(CCCNc4ccc5nnn6c7ccccc7c(=O)c4c56)CC3)c2c1	> 25 µM	
Cn1c(=O)c2c(nc(N/N=C/c3ccccc3C(=O)O)n2C)n(C)c1=O	> 100 µM	

test system: TK-10 renal; experiment: NCI-60 cell line screen, 48 h

Compound	TGI	GI50 [µg/mL]
CC(=O)OCC1OC(n2c3c(cc(C#N)c2=S)CCCC3)C(OC(C)=O)C(OC(C)=O)C1OC(C)=O (configuration not stated)	> 100 µM	
N#[N+]c1ccc(Nc2ccccc2)cc1	> 50 µg/mL	> 50
COC(=O)c1c(O)ccc2c1c1cc3ccccc3c(O)c1n2CCc1ccc(OC)c(OC)c1	> 100 µM	
Nc1ccccc1C(=O)N=Nc1c(O)[nH]c2ccccc12	> 100 µM	
COc1ccc2nc3cc(Cl)ccc3c(NCCCN3CCN(CCCNc4ccc5nnn6c7ccccc7c(=O)c4c56)CC3)c2c1	> 25 µM	
Cn1c(=O)c2c(nc(N/N=C/c3ccccc3C(=O)O)n2C)n(C)c1=O	> 100 µM	

test system: LOX IMVI melanoma; experiment: NCI-60 cell line screen, 48 h

Compound	GI50	TGI
CC(=O)OCC1OC(n2c3c(cc(C#N)c2=S)CCCC3)C(OC(C)=O)C(OC(C)=O)C1OC(C)=O (configuration not stated)	20.7 µM and > 100 µM	57.3 µM and > 100 µM
N#[N+]c1ccc(Nc2ccccc2)cc1	> 50 µg/mL	> 50 µg/mL
COc1ccc2nc3cc(Cl)ccc3c(NCCCN3CCN(CCCNc4ccc5nnn6c7ccccc7c(=O)c4c56)CC3)c2c1		> 25 µM
Cn1c(=O)c2c(nc(N/N=C/c3ccccc3C(=O)O)n2C)n(C)c1=O		> 100 µM

test system: NCI/ADR-RES ovarian; experiment: NCI-60 cell line screen, 48 h

Compound	TGI	GI50 [µg/mL]
CC(=O)OCC1OC(n2c3c(cc(C#N)c2=S)CCCC3)C(OC(C)=O)C(OC(C)=O)C1OC(C)=O (configuration not stated)	> 100 µM	
N#[N+]c1ccc(Nc2ccccc2)cc1	> 50 µg/mL	> 50
COC(=O)c1c(O)ccc2c1c1cc3ccccc3c(O)c1n2CCc1ccc(OC)c(OC)c1	> 100 µM	
Nc1ccccc1C(=O)N=Nc1c(O)[nH]c2ccccc12	> 100 µM	
COc1ccc2nc3cc(Cl)ccc3c(NCCCN3CCN(CCCNc4ccc5nnn6c7ccccc7c(=O)c4c56)CC3)c2c1	> 25 µM	
Cn1c(=O)c2c(nc(N/N=C/c3ccccc3C(=O)O)n2C)n(C)c1=O	> 100 µM	

test system: U251 CNS; experiment: NCI-60 cell line screen, 48 h

Compound	GI50	TGI
CC(=O)OCC1OC(n2c3c(cc(C#N)c2=S)CCCC3)C(OC(C)=O)C(OC(C)=O)C1OC(C)=O (configuration not stated)	> 100 µM and 21.9 µM	> 100 µM and 53 µM
N#[N+]c1ccc(Nc2ccccc2)cc1	> 50 µg/mL	> 50 µg/mL
COC(=O)c1c(O)ccc2c1c1cc3ccccc3c(O)c1n2CCc1ccc(OC)c(OC)c1		> 100 µM
Nc1ccccc1C(=O)N=Nc1c(O)[nH]c2ccccc12		> 100 µM
COc1ccc2nc3cc(Cl)ccc3c(NCCCN3CCN(CCCNc4ccc5nnn6c7ccccc7c(=O)c4c56)CC3)c2c1		> 25 µM
Cn1c(=O)c2c(nc(N/N=C/c3ccccc3C(=O)O)n2C)n(C)c1=O		> 100 µM

test system: SR leukemia; experiment: NCI-60 cell line screen, 48 h

Compound	GI50	TGI
CC(=O)OCC1OC(n2c3c(cc(C#N)c2=S)CCCC3)C(OC(C)=O)C(OC(C)=O)C1OC(C)=O (configuration not stated)	32.4 µM and > 100 µM	> 100 µM
N#[N+]c1ccc(Nc2ccccc2)cc1	> 50 µg/mL	> 50 µg/mL
COC(=O)c1c(O)ccc2c1c1cc3ccccc3c(O)c1n2CCc1ccc(OC)c(OC)c1		> 100 µM
Nc1ccccc1C(=O)N=Nc1c(O)[nH]c2ccccc12		> 100 µM
COc1ccc2nc3cc(Cl)ccc3c(NCCCN3CCN(CCCNc4ccc5nnn6c7ccccc7c(=O)c4c56)CC3)c2c1		> 25 µM
Cn1c(=O)c2c(nc(N/N=C/c3ccccc3C(=O)O)n2C)n(C)c1=O		> 100 µM

test system: ACHN renal; experiment: NCI-60 cell line screen, 48 h

Compound	TGI	GI50 [µg/mL]
CC(=O)OCC1OC(n2c3c(cc(C#N)c2=S)CCCC3)C(OC(C)=O)C(OC(C)=O)C1OC(C)=O (configuration not stated)	> 100 µM	
N#[N+]c1ccc(Nc2ccccc2)cc1	> 50 µg/mL	> 50
COC(=O)c1c(O)ccc2c1c1cc3ccccc3c(O)c1n2CCc1ccc(OC)c(OC)c1	> 100 µM	
Nc1ccccc1C(=O)N=Nc1c(O)[nH]c2ccccc12	> 100 µM	
Cn1c(=O)c2c(nc(N/N=C/c3ccccc3C(=O)O)n2C)n(C)c1=O	> 100 µM	

test system: NCI-H460 lung; experiment: NCI-60 cell line screen, 48 h

Compound	TGI [µM]
CC(=O)OCC1OC(n2c3c(cc(C#N)c2=S)CCCC3)C(OC(C)=O)C(OC(C)=O)C1OC(C)=O (configuration not stated)	> 100
COC(=O)c1c(O)ccc2c1c1cc3ccccc3c(O)c1n2CCc1ccc(OC)c(OC)c1	> 100
Nc1ccccc1C(=O)N=Nc1c(O)[nH]c2ccccc12	> 100
COc1ccc2nc3cc(Cl)ccc3c(NCCCN3CCN(CCCNc4ccc5nnn6c7ccccc7c(=O)c4c56)CC3)c2c1	> 25
Cn1c(=O)c2c(nc(N/N=C/c3ccccc3C(=O)O)n2C)n(C)c1=O	> 100

test system: OVCAR-4 ovarian; experiment: NCI-60 cell line screen, 48 h

Compound	TGI	GI50 [µg/mL]
CC(=O)OCC1OC(n2c3c(cc(C#N)c2=S)CCCC3)C(OC(C)=O)C(OC(C)=O)C1OC(C)=O (configuration not stated)	> 100 µM	
N#[N+]c1ccc(Nc2ccccc2)cc1	2.27 µg/mL	0.472
COC(=O)c1c(O)ccc2c1c1cc3ccccc3c(O)c1n2CCc1ccc(OC)c(OC)c1	> 100 µM	
Nc1ccccc1C(=O)N=Nc1c(O)[nH]c2ccccc12	> 100 µM	
COc1ccc2nc3cc(Cl)ccc3c(NCCCN3CCN(CCCNc4ccc5nnn6c7ccccc7c(=O)c4c56)CC3)c2c1	> 25 µM	
Cn1c(=O)c2c(nc(N/N=C/c3ccccc3C(=O)O)n2C)n(C)c1=O	> 100 µM	

test system: BT-549 breast; experiment: NCI-60 cell line screen, 48 h

Compound	TGI	GI50 [µg/mL]
CC(=O)OCC1OC(n2c3c(cc(C#N)c2=S)CCCC3)C(OC(C)=O)C(OC(C)=O)C1OC(C)=O (configuration not stated)	> 100 µM	
N#[N+]c1ccc(Nc2ccccc2)cc1	> 50 µg/mL	> 50
COC(=O)c1c(O)ccc2c1c1cc3ccccc3c(O)c1n2CCc1ccc(OC)c(OC)c1	> 100 µM	
Nc1ccccc1C(=O)N=Nc1c(O)[nH]c2ccccc12	> 100 µM	
COc1ccc2nc3cc(Cl)ccc3c(NCCCN3CCN(CCCNc4ccc5nnn6c7ccccc7c(=O)c4c56)CC3)c2c1	> 14.8 µM	
Cn1c(=O)c2c(nc(N/N=C/c3ccccc3C(=O)O)n2C)n(C)c1=O	> 100 µM	

test system: SK-OV-3 ovarian; experiment: NCI-60 cell line screen, 48 h

Compound	GI50 [µg/mL]	TGI
N#[N+]c1ccc(Nc2ccccc2)cc1	> 50	> 50 µg/mL
COC(=O)c1c(O)ccc2c1c1cc3ccccc3c(O)c1n2CCc1ccc(OC)c(OC)c1		> 100 µM
Nc1ccccc1C(=O)N=Nc1c(O)[nH]c2ccccc12		> 100 µM
COc1ccc2nc3cc(Cl)ccc3c(NCCCN3CCN(CCCNc4ccc5nnn6c7ccccc7c(=O)c4c56)CC3)c2c1		> 25 µM
Cn1c(=O)c2c(nc(N/N=C/c3ccccc3C(=O)O)n2C)n(C)c1=O		> 100 µM

test system: OVCAR-3 ovarian; experiment: NCI-60 cell line screen, 48 h

Compound	GI50	TGI
CC(=O)OCC1OC(n2c3c(cc(C#N)c2=S)CCCC3)C(OC(C)=O)C(OC(C)=O)C1OC(C)=O (configuration not stated)	45.2 µM and > 100 µM	> 100 µM
N#[N+]c1ccc(Nc2ccccc2)cc1	> 50 µg/mL	> 50 µg/mL
COC(=O)c1c(O)ccc2c1c1cc3ccccc3c(O)c1n2CCc1ccc(OC)c(OC)c1		> 100 µM
Nc1ccccc1C(=O)N=Nc1c(O)[nH]c2ccccc12		> 100 µM
COc1ccc2nc3cc(Cl)ccc3c(NCCCN3CCN(CCCNc4ccc5nnn6c7ccccc7c(=O)c4c56)CC3)c2c1		> 25 µM
Cn1c(=O)c2c(nc(N/N=C/c3ccccc3C(=O)O)n2C)n(C)c1=O		> 100 µM

test system: HT29 colon; experiment: NCI-60 cell line screen, 48 h

Compound	GI50	TGI
CC(=O)OCC1OC(n2c3c(cc(C#N)c2=S)CCCC3)C(OC(C)=O)C(OC(C)=O)C1OC(C)=O (configuration not stated)	26.7 µM and > 100 µM	83.9 µM and > 100 µM
N#[N+]c1ccc(Nc2ccccc2)cc1	> 50 µg/mL	> 50 µg/mL
COC(=O)c1c(O)ccc2c1c1cc3ccccc3c(O)c1n2CCc1ccc(OC)c(OC)c1		18.6 µM
Nc1ccccc1C(=O)N=Nc1c(O)[nH]c2ccccc12		> 100 µM
COc1ccc2nc3cc(Cl)ccc3c(NCCCN3CCN(CCCNc4ccc5nnn6c7ccccc7c(=O)c4c56)CC3)c2c1		> 25 µM
Cn1c(=O)c2c(nc(N/N=C/c3ccccc3C(=O)O)n2C)n(C)c1=O		> 100 µM
